Test results as given in patent US20160002248A1, “GLS1 INHIBITORS FOR TREATING DISEASE” (Board of Regents, The University of Texas System, priority 2014, published 2016).

Assays:
[1] = molecular target: T1, purified recombinant human GAC (GLS1) (Homo sapiens, UniProt O94925); assay: GLS1 Enzymatic Activity Assay (dual-coupled enzymatic assay); assay type: biochemical
T1 sequence (O94925 55-598 isoform O94925-3 limits assumed): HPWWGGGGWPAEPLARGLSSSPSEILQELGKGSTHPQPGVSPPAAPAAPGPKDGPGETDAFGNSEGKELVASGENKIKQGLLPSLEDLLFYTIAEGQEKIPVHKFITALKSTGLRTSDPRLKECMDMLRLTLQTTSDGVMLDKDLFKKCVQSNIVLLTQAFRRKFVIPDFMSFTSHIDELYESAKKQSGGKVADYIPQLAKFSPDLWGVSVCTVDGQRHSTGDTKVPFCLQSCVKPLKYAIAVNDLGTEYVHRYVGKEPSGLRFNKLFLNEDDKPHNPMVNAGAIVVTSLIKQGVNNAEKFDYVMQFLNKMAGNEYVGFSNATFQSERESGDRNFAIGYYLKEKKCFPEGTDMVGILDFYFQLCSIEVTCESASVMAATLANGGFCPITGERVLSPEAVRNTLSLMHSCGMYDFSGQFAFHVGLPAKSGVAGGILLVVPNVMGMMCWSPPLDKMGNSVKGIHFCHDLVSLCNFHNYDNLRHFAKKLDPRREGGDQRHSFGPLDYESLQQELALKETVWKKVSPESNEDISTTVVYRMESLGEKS
Procedure, shortened: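 In this coupled fluorometric format, phosphate-activated GAC (2 nM, 50 mM phosphate) is pre-exposed to compound for 10 min before 1 mM glutamine addition. Product is tracked as resorufin (530/590 nm) over time or at 20 min, and potency is derived by logistic fitting.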

[2] = test system: A549 cells; assay: Proliferation Assay (A549 cell viability, Cell Titer Fluor); assay type: cell-based; details: Homo sapiens, 72 hours
Procedure, shortened: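 Seed A549 at 1000 cells/well and culture 24 h. Add compound (final DMSO 0.5%) and incubate 72 h at 37 °C. Add Cell Titer Fluor, mix 15 min, incubate 30 min, read fluorescence and fit EC50 by four-parameter logistic.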

IC50 [1] [µM] | EC50 [2] [µM] | SMILES
< 0.1 | < 0.1 | Cc1ccc(CNC(=O)c2cn(CCCCc3cc4c(-c5ccc6c(c5)OCO6)c(C5CC5)[nH]c4nn3)nn2)cn1 [Example 146, 1-{4-[5-(2H-1,3-benzodioxol-5-yl)-6-cyclopropyl-7H-pyrrolo[2,3-c]pyridazin-3-yl]butyl}-N-[(6-methylpyridin-3-yl)methyl]-1H-1,2,3-triazole-4-carboxamide]
< 0.1 | < 0.1 | Cc1ccc(CNC(=O)c2cn(CCCCc3cc4c(-c5ccc(F)cc5F)c(C5CC5)[nH]c4nn3)nn2)cn1 [Example 147, 1-{4-[6-cyclopropyl-5-(2,4-difluorophenyl)-7H-pyrrolo[2,3-c]pyridazin-3-yl]butyl}-N-[(6-methylpyridin-3-yl)methyl]-1H-1,2,3-triazole-4-carboxamide]
< 0.1 | < 0.1 | O=C(NCc1cc(OC(F)(F)F)ccc1F)c1cn(CCCCc2cc3cc(C4CN(C(=O)OCC(F)(F)F)C4)[nH]c3nn2)nn1 [Example 148, 2,2,2-trifluoroethyl 3-(3-{4-[4-({[2-fluoro-5-(trifluoromethoxy)phenyl]methyl}carbamoyl)-1H-1,2,3-triazol-1-yl]butyl}-7H-pyrrolo[2,3-c]pyridazin-6-yl)azetidine-1-carboxylate]
< 0.1 | 0.5 to 5 | O=C(NCc1ccccn1)c1cn(CCCCc2cc3cc(-c4cccc(OC(F)(F)F)c4)[nH]c3nn2)nn1 [Example 149, N-(pyridin-2-ylmethyl)-1-(4-{6-[3-(trifluoromethoxy)phenyl]-7H-pyrrolo[2,3-c]pyridazin-3-yl}butyl)-1H-1,2,3-triazole-4-carboxamide]
< 0.1 | < 0.1 | CC(C)(C)OC(=O)N1CCC(c2cc3cc(CCCCn4cc(C(=O)NCc5cc(OC(F)(F)F)ccc5F)nn4)nnc3[nH]2)CC1 [Example 150, tert-butyl 4-(3-{4-[4-({[2-fluoro-5-(trifluoromethoxy)phenyl]methyl}carbamoyl)-1H-1,2,3-triazol-1-yl]butyl}-7H-pyrrolo[2,3-c]pyridazin-6-yl)piperidine-1-carboxylate]
< 0.1 | 0.1 to 0.5 | O=C(NCc1ccccn1)c1cn(CCCCc2cc3c(-c4ccc(F)cc4F)c(C4CC4)[nH]c3nn2)nn1 [Example 151]
< 0.1 | 0.5 to 5 | CC(=O)Nc1cccc(-c2c(C3CC3)[nH]c3nnc(CCCCn4cc(C(=O)NCc5ccc(C(C)(C)O)nc5)nn4)cc23)c1 [Example 152, 1-{4-[6-cyclopropyl-5-(3-acetamidophenyl)-7H-pyrrolo[2,3-c]pyridazin-3-yl]butyl}-N-{[6-(2-hydroxypropan-2-yl)pyridin-3-yl]methyl}-1H-1,2,3-triazole-4-carboxamide]
< 0.1 | 0.5 to 5 | CC(=O)Nc1cccc(-c2c(C3CC3)[nH]c3nnc(CCCCn4cc(C(=O)NCc5ccccn5)nn4)cc23)c1 [Example 153]
< 0.1 | 0.5 to 5 | CC(=O)Nc1cccc(-c2c(C3CC3)[nH]c3nnc(CCCCn4cc(C(=O)NCc5ccc(C)nc5)nn4)cc23)c1 [Example 154, 1-{4-[6-cyclopropyl-5-(3-acetamidophenyl)-7H-pyrrolo[2,3-c]pyridazin-3-yl]butyl}-N-[(6-methylpyridin-3-yl)methyl]-1H-1,2,3-triazole-4-carboxamide]
0.1 to 0.5 | 0.5 to 5 | O=C(NCc1cc(OC(F)(F)F)ccc1F)c1cn(CCCCc2cc3cc(C4CCNCC4)[nH]c3nn2)nn1 [Example 155, N-{[2-fluoro-5-(trifluoromethoxy)phenyl]methyl)-1-{4-[6-(piperidin-4-yl)-7H-pyrrolo[2,3-c]pyridazin-3-yl]butyl)-1H-1,2,3-triazole-4-carboxamide]
< 0.1 | 0.1 to 0.5 | CC(=O)N1CCC(c2cc3cc(CCCCn4cc(C(=O)NCc5cc(OC(F)(F)F)ccc5F)nn4)nnc3[nH]2)CC1 [Example 156, 1-{4-[6-(1-acetylpiperidin-4-yl)-7H-pyrrolo[2,3-c]pyridazin-3-yl]butyl}-N-{[2-fluoro-5-(trifluoromethoxy)phenyl]methyl}-1H-1,2,3-triazole-4-carboxamide]
